Assay results as given in patent publication US6838416B2, “Herbicidal 5-benzyloxymethyl-1,2-isoxazoline derivatives” (Korea Research Institute of Chemical Technology, priority 2000, dated 2005).

Tests used:
[1] = system: ORYSA (seed); test: Assay for herbicidal activity, paddy pots: phytotoxicity to seeded (pregerminated) rice; format: in vivo, Oryza sativa L.; conditions: three weeks after application, 0 untreated control, 100 complete kill
Source text: (§1) To evaluate herbicidal activity against the paddy weeds in the paddy rice (ORYSA: Oryza sativa L.), the herbicidal activity of the compounds of the invention was compared to that of the compound No.109 (compound A) disclosed in U.S. Pat. […] The paddy weeds tested were ECHOR (Echinochloa crus-galli var. oryzicola), SCPJU (Scirpus juncoides ROXB), MOOVA (Monochoria vaginalis […] (Cyperus serotinus ROTTB), and SAGPY (Sagittaria pygmaea MTQ). The vessels employed were plastic pots having an area of 140 cm^2 and filled with a sandy loam soil containing 1.2% organic matter (pH 6).

[2] = system: MOOVA (seed); test: Assay for herbicidal activity, paddy pots: MOOVA; format: in vivo, Monochoria vaginalis PRESL; conditions: three weeks after application, 0 untreated control, 100 complete kill
Outline: (§2)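 Paddy pot test; 140 cm^2 plastic pots; sandy loam, 1.2% organic matter, pH 6.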

[3] = system: CYPSE (tuber); test: Assay for herbicidal activity, paddy pots: CYPSE; format: in vivo, Cyperus serotinus ROTTB; conditions: three weeks after application, 0 untreated control, 100 complete kill
Outline: as §2

[4] = system: ECHOR (seed); test: Assay for herbicidal activity, paddy pots: ECHOR; format: in vivo, Echinochloa crus-galli var. oryzicola; conditions: three weeks after application, 0 untreated control, 100 complete kill
Outline: as §2

[5] = system: paddy weeds; test: Greenhouse herbicidal assays, overall statements on paddy weeds; format: in vivo
Source text: To evaluate herbicidal activity against the paddy weeds in the paddy rice (ORYSA: Oryza sativa L.), the herbicidal activity of the compounds of the invention was compared to that of the compound No.109 (compound A) disclosed in U.S. Pat. No. 4,983,210 which has a similar structure with that of the present invention. The paddy weeds tested were ECHOR (Echinochloa crus-galli var. oryzicola), SCPJU (Scirpus juncoides ROXB), MOOVA (Monochoria vaginalis PRESL), CYPSE (Cyperus serotinus ROTTB), and SAGPY (Sagittaria pygmaea MTQ).
The vessels employed were plastic pots having an area of 140 cm^2 and filled with a sandy loam soil containing 1.2% organic matter (pH 6). Rice seedlings at the 3-leaf stage (ORYSA: Oryza sativa L.) and pregerminated seeds of rice were transplanted at the depth of 2 cm or seeded on the soil surface, respectively. Then the seeds of ECHOR, SCPJU, and MOOVA were seeded and the tubers of CYPSE and SAGPY also planted on the soil surface in the above plastic pot, wherein the pots were watered at the depth of 3 cm just after planting.
Two days after planting, a solution of the test compound and a non-ionic emulsifier (Tween-20) in 50% acetone, was diluted with water to a concentration of 0.016, 0.063, 0.25, 1.0, and 4.0 kg/ha, respectively and applied evenly to the test pots. […]

[6] = system: SAGPY (tuber); test: Assay for herbicidal activity, paddy pots: SAGPY; format: in vivo, Sagittaria pygmaea MTQ; conditions: three weeks after application, 0 untreated control, 100 complete kill
Outline: as §2

[7] = system: ORYSA (3-leaf stage); test: Assay for herbicidal activity, paddy pots: phytotoxicity to transplanted rice seedlings; format: in vivo, Oryza sativa L.; conditions: three weeks after application, 0 untreated control, 100 complete kill
Source text: as §1

[8] = system: SCPJU (seed); test: Assay for herbicidal activity, paddy pots: SCPJU; format: in vivo, Scirpus juncoides ROXB; conditions: three weeks after application, 0 untreated control, 100 complete kill
Outline: as §2

CC1(COCc2c(F)cccc2F)CC(c2cccs2)=NO1 (stereo not shown) [Compound A, reference compound]
20%: ORYSA (seed) phytotoxicity, visual percentage grading ([1]; 0.250 kg/ha) | ECHOR (seed) herbicidal activity, visual percentage grading ([4]; 0.250 kg/ha)
70%: SCPJU (seed) herbicidal activity, visual percentage grading ([8]; 1.000 kg/ha)
active: herbicidal activity, in words ([5]; at the higher doses)
inactive: herbicidal activity, in words ([5]; at the lower doses)
100%: ORYSA (seed) phytotoxicity, visual percentage grading ([1]; 1.000 kg/ha) | ORYSA (seed) phytotoxicity, visual percentage grading ([1]; 4.000 kg/ha) | MOOVA (seed) herbicidal activity, visual percentage grading ([2]; 4.000 kg/ha) | CYPSE (tuber) herbicidal activity, visual percentage grading ([3]; 1.000 kg/ha) | CYPSE (tuber) herbicidal activity, visual percentage grading ([3]; 4.000 kg/ha) | ECHOR (seed) herbicidal activity, visual percentage grading ([4]; 1.000 kg/ha) | ECHOR (seed) herbicidal activity, visual percentage grading ([4]; 4.000 kg/ha) | SAGPY (tuber) herbicidal activity, visual percentage grading ([6]; 0.250 kg/ha) | SAGPY (tuber) herbicidal activity, visual percentage grading ([6]; 1.000 kg/ha) | SAGPY (tuber) herbicidal activity, visual percentage grading ([6]; 4.000 kg/ha) | SCPJU (seed) herbicidal activity, visual percentage grading ([8]; 4.000 kg/ha)
80%: MOOVA (seed) herbicidal activity, visual percentage grading ([2]; 0.250 kg/ha) | MOOVA (seed) herbicidal activity, visual percentage grading ([2]; 1.000 kg/ha)
10%: CYPSE (tuber) herbicidal activity, visual percentage grading ([3]; 0.250 kg/ha) | SCPJU (seed) herbicidal activity, visual percentage grading ([8]; 0.250 kg/ha)
0%: ORYSA (seed) phytotoxicity, visual percentage grading ([1]; 0.016 kg/ha) | ORYSA (seed) phytotoxicity, visual percentage grading ([1]; 0.063 kg/ha) | MOOVA (seed) herbicidal activity, visual percentage grading ([2]; 0.016 kg/ha) | MOOVA (seed) herbicidal activity, visual percentage grading ([2]; 0.063 kg/ha) | CYPSE (tuber) herbicidal activity, visual percentage grading ([3]; 0.016 kg/ha) | CYPSE (tuber) herbicidal activity, visual percentage grading ([3]; 0.063 kg/ha) | ECHOR (seed) herbicidal activity, visual percentage grading ([4]; 0.016 kg/ha) | ECHOR (seed) herbicidal activity, visual percentage grading ([4]; 0.063 kg/ha) | SAGPY (tuber) herbicidal activity, visual percentage grading ([6]; 0.016 kg/ha) | SAGPY (tuber) herbicidal activity, visual percentage grading ([6]; 0.063 kg/ha) | ORYSA (3-leaf stage) phytotoxicity, visual percentage grading ([7]; 0.016 kg/ha) | ORYSA (3-leaf stage) phytotoxicity, visual percentage grading ([7]; 0.063 kg/ha) | ORYSA (3-leaf stage) phytotoxicity, visual percentage grading ([7]; 0.250 kg/ha) | ORYSA (3-leaf stage) phytotoxicity, visual percentage grading ([7]; 1.000 kg/ha) | ORYSA (3-leaf stage) phytotoxicity, visual percentage grading ([7]; 4.000 kg/ha) | SCPJU (seed) herbicidal activity, visual percentage grading ([8]; 0.016 kg/ha) | SCPJU (seed) herbicidal activity, visual percentage grading ([8]; 0.063 kg/ha)
